# Measured values: US9487479B2, “Small molecule inhibitors of N-terminus activation of the androgen receptor” (The University of British Columbia, priority 2008, dated 2016)
# Tests used:
# LNCaP cells [1] = assay: Androgen-dependent proliferation of LNCaP cells (BrdU incorporation); type: cell-based, human; details: 5 μg/ml, 1 hr before R1881 0.1 nM, 3 days
# Description: (§1) BrdU incorporation was measured 3 days later to indicate changes in proliferation in response to androgen (see FIG. 3B).
# PC3 cells = assay: Proliferation of PC3 cells (BrdU incorporation); type: cell-based, human; details: 5 μg/mL
# Excerpt: LNCaP cells were employed initially for all experiments because they are well-differentiated human prostate cancer cells in which ligand-independent activation of the AR by FSK has been characterized (Nazareth et al 1996 J. Biol. Chem. 271, 19900-19907; and Sadar 1999 J. Biol. Chem. 274, 7777-7783). LNCaP cells express endogenous AR and secrete prostate-specific antigen (PSA) (Horoszewicz et al 1983 Cancer Res. 43, 1809-1818). LNCaP cells can be grown either as monolayers in cell culture or as tumors in the well-characterized xenograft model that progresses to androgen independence in castrated hosts (Sato et al 1996 J. Steroid Biochem. Mol. Biol. 58, 139-146; Gleave et al 1991 Cancer Res. 51, 3753-3761; Sato et al 1997 Cancer Res. 57, 1584-1589; and Sadar et al 2002 Mol. Cancer Ther. 1(8), 629-637). […] Small molecules that specifically target the AR-NTD should have no effect on PC3 cells. This means that they should not alter the proliferation of PC3 cells if they specifically block the AR to mediate their inhibitory effects. R1881 was employed since it is stable and avoids problems associated with the labile physiological ligand dihydrotestosterone (DHT). Reporter specificity may be determined using several alternative reporter gene constructs. […]
# as §1
# LNCaP cells [2] = assay: Cytotoxicity: cell morphology of treated LNCaP cells; type: cell-based, human; details: LNCaP cells treated for 48 h, 10 μM
# Excerpt: From this extract, the pure active compound, Sintokamide A (CB3.1) was isolated and to ensure that the inhibitory effect of CB3.1 was not due to generally cytotoxicity, cell morphology of LNCaP cells was examined. […] Cells treated with R1881 are also shown to provide an indication of cell number and for comparison.
# [3] = Animal body weight during the LNCaP xenograft experiment; type: in vivo, mice
# Description: The subcutaneous xenograft model was used to test whether sintokamides that inhibit activation of the androgen receptor in vitro have any effect on these tumors. CB3.1 was tested in vivo using the LNCaP subcutaneous xenograft model. […] LNCaP human prostate cancer cells express endogenous androgen receptor (AR) and prostate-specific antigen (PSA), and progress to androgen independence in castrated hosts. LNCaP cells (10^6/ml) were implanted subcutaneously into NOD-SCID male mice that were at least 8 weeks in age. The cells were suspended in 75 μl of RPMI medium 1640 (5% FBS) with 75 μl of Matrigel and injected into the flank region of the host under anesthesia. LNCaP cells were implanted subcutaneously into NOD-SCID male mice and the animals were castrated when the tumors were approximately 100 mm^3 (mean=[…]; n=18) and randomized into two groups. One week after castration the animals were treated every 3 days with an intratumoral dose of 30 mg/kg body weight of CB3.1 or matching volume of vehicle (control, DMSO). […] Fifteen days after the first injection of CB3.1, the tumors were 111.81%±38.12 the tumor volume on the day of the 1st injection. While 15 days after injection of DMSO, the tumors were 180.27%±111.67 the tumor volume on the day of the 1st injection. Serum PSA provides an indication of prognosis. For animals receiving CB3.1, serum PSA was 98.47%±170.51 on day 15 after the 1st injection. […] Tumor volume and serum PSA values were consistent with CB3.1 reducing tumor burden and serum PSA compared to vehicle-treated animals.
smiles,measurement,setting,value
"CCC(=O)N[C@H](C[C@H](C)C(Cl)(Cl)Cl)C(=O)N1C(=O)C=C(OC)[C@@H]1C[C@H](C)C(Cl)Cl [CB3.1, Sintokamide A]",androgen-induced proliferation (BrdU incorporation),LNCaP cells [1],reduced proliferation
same,proliferation of PC3 cells (BrdU incorporation),PC3 cells,did not block proliferation
same,signs of toxicity (cell morphology),LNCaP cells [2],no obvious signs of toxicity
same,change in animal body weight,"[3]; duration of the experiment, intratumoral 30 mg/kg every 3 days",No change in animal body weight
same,"animal body weight, finish","[3]; finish of experiment, intratumoral 30 mg/kg every 3 days",25.0±1.4 grams
same,"animal body weight, start",[3]; start of experiment,24.6±1.1 grams
